Assay results reported in patent US11178873B2, “Cyclic N-carboxamide compounds useful as herbicides” (FMC CORPORATION, priority 2015, dated 2021).

Columns and labels:
Assay type in all cases: in vivo
[1] = test system: galium (catchweed bedstraw, Galium aparine); assay: Test A postemergence, galium; conditions: 0 to 100 scale, 0 no effect, 100 complete control
Summary of the method: (§1)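 Visual injury scores (0 = no effect, 100 = complete control) were assigned roughly 10 d after treatment by comparison with untreated controls. Chemicals, formulated in a non-phytotoxic solvent mixture containing surfactant, were applied as a preemergence directed soil spray or postemergence to one- to two-leaf plants 2 to 10 cm tall.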

[2] = test system: pigweed (Amaranthus retroflexus); assay: Test A postemergence, pigweed; conditions: 0 to 100 scale, 0 no effect, 100 complete control
Summary of the method: as §1

[3] = test system: foxtail, giant (giant foxtail, Setaria faberii); assay: Test A postemergence, foxtail, giant; conditions: 0 to 100 scale, 0 no effect, 100 complete control
Summary of the method: as §1

[4] = test system: sedge, umbrella (small-flower umbrella sedge, Cyperus difformis); assay: Test B flooded paddy test, sedge, umbrella; conditions: Flood, 250 g ai/ha; scale 0 to 100 (0 no effect, 100 complete control); 13 to 15 d
Summary of the method: (§2)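 Plants at the 2-leaf stage were flooded to 3 cm above soil, and test compounds were applied directly into the paddy water, which was held at that depth throughout. After 13 to 15 d in a greenhouse, injury was rated visually against untreated controls on a 0–100 scale (0 no effect, 100 complete control).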

[5] = test system: barnyardgrass (Echinochloa crus-galli); assay: Test A preemergence, barnyardgrass; conditions: 0 to 100 scale, 0 no effect, 100 complete control
Summary of the method: as §1

[6] = test system: ragweed (common ragweed, Ambrosia elatior); assay: Test A postemergence, ragweed; conditions: 0 to 100 scale, 0 no effect, 100 complete control
Summary of the method: as §1

[7] = test system: pigweed (Amaranthus retroflexus); assay: Test A preemergence, pigweed; conditions: 0 to 100 scale, 0 no effect, 100 complete control
Summary of the method: as §1

[8] = test system: barnyardgrass (Echinochloa crus-galli); assay: Test B flooded paddy test, barnyardgrass; conditions: Flood, 250 g ai/ha; scale 0 to 100 (0 no effect, 100 complete control); 13 to 15 d
Summary of the method: as §2

[9] = test system: wheat (Triticum aestivum); assay: Test A postemergence, wheat; conditions: 0 to 100 scale, 0 no effect, 100 complete control
Summary of the method: as §1

[10] = test system: blackgrass (Alopecurus myosuroides); assay: Test A postemergence, blackgrass; conditions: 0 to 100 scale, 0 no effect, 100 complete control
Summary of the method: as §1

[11] = test system: ryegrass, Italian (Italian ryegrass, Lolium multiflorum); assay: Test A preemergence, ryegrass, Italian; conditions: 0 to 100 scale, 0 no effect, 100 complete control
Summary of the method: as §1

[12] = test system: kochia (Kochia scoparia); assay: Test A postemergence, kochia; conditions: 0 to 100 scale, 0 no effect, 100 complete control
Summary of the method: as §1

[13] = test system: corn (Zea mays); assay: Test A postemergence, corn; conditions: 0 to 100 scale, 0 no effect, 100 complete control
Summary of the method: as §1

[14] = test system: kochia (Kochia scoparia); assay: Test A preemergence, kochia; conditions: 0 to 100 scale, 0 no effect, 100 complete control
Summary of the method: as §1

[15] = test system: rice (Oryza sativa); assay: Test B flooded paddy test, rice; conditions: Flood, 250 g ai/ha; scale 0 to 100 (0 no effect, 100 complete control); 13 to 15 d
Summary of the method: as §2

[16] = test system: ducksalad (Heteranthera limosa); assay: Test B flooded paddy test, ducksalad; conditions: Flood, 250 g ai/ha; scale 0 to 100 (0 no effect, 100 complete control); 13 to 15 d
Summary of the method: as §2

[17] = test system: ragweed (common ragweed, Ambrosia elatior); assay: Test A preemergence, ragweed; conditions: 0 to 100 scale, 0 no effect, 100 complete control
Summary of the method: as §1

[18] = test system: barnyardgrass (Echinochloa crus-galli); assay: Test A postemergence, barnyardgrass; conditions: 0 to 100 scale, 0 no effect, 100 complete control
Summary of the method: as §1

[19] = test system: ryegrass, Italian (Italian ryegrass, Lolium multiflorum); assay: Test A postemergence, ryegrass, Italian; conditions: 0 to 100 scale, 0 no effect, 100 complete control
Summary of the method: as §1

[20] = test system: foxtail, giant (giant foxtail, Setaria faberii); assay: Test A preemergence, foxtail, giant; conditions: 0 to 100 scale, 0 no effect, 100 complete control
Summary of the method: as §1

O=C1CCC(c2ccc(Cl)cc2)N1C(=O)Nc1ccc(F)c(F)c1F (stereo not drawn) [Compound 22]
0: Plant response rating, Galium ([1]; 31 g ai/ha) | Plant response rating, Galium ([1]; 125 g ai/ha) | Plant response rating, Pigweed ([2]; 31 g ai/ha) | Plant response rating, Pigweed ([2]; 125 g ai/ha) | Plant response rating, Foxtail, Giant ([3]; 31 g ai/ha) | Plant response rating, Foxtail, Giant ([3]; 125 g ai/ha) | Plant response rating, Sedge, Umbrella [4] | Plant response rating, Barnyardgrass ([5]; 31 g ai/ha) | Plant response rating, Barnyardgrass ([5]; 125 g ai/ha) | Plant response rating, Ragweed ([6]; 31 g ai/ha) | Plant response rating, Ragweed ([6]; 125 g ai/ha) | Plant response rating, Pigweed ([7]; 31 g ai/ha) | Plant response rating, Pigweed ([7]; 125 g ai/ha) | Plant response rating, Barnyardgrass [8] | Plant response rating, Wheat ([9]; 31 g ai/ha) | Plant response rating, Wheat ([9]; 125 g ai/ha) | Plant response rating, Blackgrass ([10]; 31 g ai/ha) | Plant response rating, Blackgrass ([10]; 125 g ai/ha) | Plant response rating, Ryegrass, Italian ([11]; 31 g ai/ha) | Plant response rating, Ryegrass, Italian ([11]; 125 g ai/ha) | Plant response rating, Kochia ([12]; 31 g ai/ha) | Plant response rating, Kochia ([12]; 125 g ai/ha) | Plant response rating, Corn ([13]; 31 g ai/ha) | Plant response rating, Corn ([13]; 125 g ai/ha) | Plant response rating, Kochia ([14]; 31 g ai/ha) | Plant response rating, Kochia ([14]; 125 g ai/ha) | Plant response rating, Rice [15] | Plant response rating, Ducksalad [16] | Plant response rating, Ragweed ([17]; 31 g ai/ha) | Plant response rating, Ragweed ([17]; 125 g ai/ha) | Plant response rating, Barnyardgrass ([18]; 31 g ai/ha) | Plant response rating, Barnyardgrass ([18]; 125 g ai/ha) | Plant response rating, Ryegrass, Italian ([19]; 31 g ai/ha) | Plant response rating, Ryegrass, Italian ([19]; 125 g ai/ha) | Plant response rating, Foxtail, Giant ([20]; 31 g ai/ha) | Plant response rating, Foxtail, Giant ([20]; 125 g ai/ha)

O=C1CCC(c2ccc(Cl)cc2)N1C(=O)Nc1ccccc1C(F)(F)F (stereo not drawn) [Compound 23]
0: Plant response rating, Galium ([1]; 31 g ai/ha) | Plant response rating, Galium ([1]; 125 g ai/ha) | Plant response rating, Pigweed ([2]; 31 g ai/ha) | Plant response rating, Pigweed ([2]; 125 g ai/ha) | Plant response rating, Foxtail, Giant ([3]; 31 g ai/ha) | Plant response rating, Foxtail, Giant ([3]; 125 g ai/ha) | Plant response rating, Sedge, Umbrella [4] | Plant response rating, Barnyardgrass ([5]; 31 g ai/ha) | Plant response rating, Barnyardgrass ([5]; 125 g ai/ha) | Plant response rating, Ragweed ([6]; 31 g ai/ha) | Plant response rating, Ragweed ([6]; 125 g ai/ha) | Plant response rating, Pigweed ([7]; 31 g ai/ha) | Plant response rating, Pigweed ([7]; 125 g ai/ha) | Plant response rating, Barnyardgrass [8] | Plant response rating, Wheat ([9]; 31 g ai/ha) | Plant response rating, Wheat ([9]; 125 g ai/ha) | Plant response rating, Blackgrass ([10]; 31 g ai/ha) | Plant response rating, Blackgrass ([10]; 125 g ai/ha) | Plant response rating, Ryegrass, Italian ([11]; 31 g ai/ha) | Plant response rating, Ryegrass, Italian ([11]; 125 g ai/ha) | Plant response rating, Kochia ([12]; 31 g ai/ha) | Plant response rating, Kochia ([12]; 125 g ai/ha) | Plant response rating, Corn ([13]; 31 g ai/ha) | Plant response rating, Corn ([13]; 125 g ai/ha) | Plant response rating, Kochia ([14]; 31 g ai/ha) | Plant response rating, Kochia ([14]; 125 g ai/ha) | Plant response rating, Rice [15] | Plant response rating, Ducksalad [16] | Plant response rating, Ragweed ([17]; 31 g ai/ha) | Plant response rating, Ragweed ([17]; 125 g ai/ha) | Plant response rating, Barnyardgrass ([18]; 31 g ai/ha) | Plant response rating, Barnyardgrass ([18]; 125 g ai/ha) | Plant response rating, Ryegrass, Italian ([19]; 31 g ai/ha) | Plant response rating, Ryegrass, Italian ([19]; 125 g ai/ha) | Plant response rating, Foxtail, Giant ([20]; 31 g ai/ha) | Plant response rating, Foxtail, Giant ([20]; 125 g ai/ha)
